Holding throughout (format): biochemical
For assay [1], the target named is T1, RUNX1-NHR2 protein (Homo sapiens, UniProt Q01196+Q06455).
T1 construct: the wild type NHR2 tetramerization domain or the homologous BCR tetramerization domain (highlighted) are optionally enclosed by an N-terminal RUNX1 domain; His6 (C); made in house; host or cells: E. coli BL21(DE3)
Briefly: ELISA: tetramer-dependent binding of RUNX1-NHR2 protein to immobilized RUNX3 oligonucleotide. The note with it: for inhibition at 1000 µM / inhibition at 2000 µM: read-out: ELISA Inhibition [%] NHR2. The protocol:
Preferably, for enzyme-linked immunosorbent assays (ELISA), wells of a 96 well plate were coated with 100 ng streptavidin (Dianova) in PBS over night at 4° C. […] Binding of RUNX1-containing proteins to the R3 oligonucleotide was detected with a primary anti-myc antibody (9E10, Santa Cruz) and a secondary HRP-coupled antibody (donkey anti-mouse IgG-HRP, Santa Cruz). ELISA was developed using the Sure Blue TMB Microwell Peroxidase substrate (KLP), and the reaction was stopped with sulfuric acid (1 N). Absorption at 450 nm and 650 nm was measured with the Spectra Max 340, Molecular Devices. Preferably, the ELISA assay is as further described in the experimental section.
The inhibition of NHR2 tetramerization was measured in vitro by tetramer-dependent binding of a RUNX1-NHR2 protein construct to an immobilized oligonucleotide derived from the RUNX3 promoter sequence in ELISA and ABCD assays. […] Furthermore, the influence of the inhibitors on the viability of RUNX1/ETO-dependent SKNO-1 cells was determined; as a control RUNX1/ETO-independent U937 cells were used.
The principle of the biochemical assays for measuring inhibition of NHR2 tetramerization is illustrated in FIG. 1. NHR2 tetramerization and its inhibition was measured in a purpose-built sandwich ELISA (enzyme-linked immunosorbent assay: FIG. 1A). • i) The RUNX1-NHR2 tetramer specifically binds to the biotinylated RUNX3-oligonucleotide (RUNX3-oligo^bio) that is immobilized on a streptavidine coated surface (SA). Disrupting the RUNX1-NHR2 tetramer into dimers leads to a release of the RUNX1-NHR2 protein from the surface. Antibody-conjugated horseradish peroxidase (HRP) binds to a primary anti-myc antibody (α-myc AB) that binds to the immobilized myc-labeled RUNX1-NHR2 tetramer. HRP catalyzes the conversion of 3,3′,5,5′-tetramethylbenzidine (TMB) to 3,3′,5,5-tetramethylbenzidine diimine.
Wells of a 96 well plate were coated with 100 ng streptavidin (Dianova) in PBS over night at 4° C. […] RUNX1-containing proteins were incubated with synthetic peptides or chemical compounds in binding buffer (25 mM HEPES, pH 7.5, 50 mM KCl, 1 mM EDTA, pH 8.0, 10 mM MgCl2, 5% glycerol, 1 mM DTT) in the presence of 1 μg salmon sperm and 1% IGEPAL CA-630 for 5 h and subsequently added to the streptavidin-bound R3 oligonucleotide for 15 min on the 96 well plate. Binding of RUNX1-containing proteins to the R3 oligonucleotide was detected with a primary anti-myc antibody (9E10, Santa Cruz) and a secondary HRP-coupled antibody (donkey anti-mouse IgG-HRP, Santa Cruz). ELISA was developed using the Sure Blue TMB Microwell Peroxidase substrate (KLP), and the reaction was stopped with sulfuric acid (1 N). Absorption at 450 nm and 650 nm was measured with the Spectra Max 340, Molecular Devices.
In general terms: ELISA stands for enzyme-linked immunosorbent assay.

In assay [2] the target is T2, RUNX1-BCR protein (Homo sapiens, UniProt P11274+Q01196).
T2 construct: replacing the NHR2 domain of the construct with the homologous BCR tetramerization domain (RUNX1-BCR protein); His6 (C); made in house; host or cells: E. coli BL21(DE3)
The experiment in a line: ELISA: tetramer-dependent binding of RUNX1-BCR protein to immobilized RUNX3 oligonucleotide (selectivity control). To be noted: for inhibition at 1000 µM / inhibition at 2000 µM: read-out: ELISA Inhibition [%] BCR.

Assay [3] concerns the target T1, RUNX1-NHR2 protein. The experiment in a line: ABCD (avidin, biotin, complex, DNA) assay with RUNX1-NHR2 protein. The note with it: for inhibition at 1000 µM: read-out: ABCD Inhibition [%] NHR2. As for the experimental part:
(§1) Oligonucleotides were annealed to the corresponding unmodified antisense oligonucleotide to generate the RUNX1 binding site. Purified RUNX1 proteins were pre-incubated with a compound for 1 h at 4° C. Similarly the biotinylated double-stranded oligonucleotides were pre-incubated with streptavidin coated magnetic beads (Dynabeads M-280 Streptavidin, Invitrogen) for 1 h at 4° C. Protein/compound samples and beads with bound oligonucleotide were incubated in binding buffer (25 mM HEPES, pH 7.5, 50 mM KCl, 1 mM EDTA, pH 8.0, 10 mM MgCl2, 5% glycerol, 1 mM DTT) in the presence of 2% IGEPAL CA-630, 1 μg of salmon sperm, and 0.1% BSA for […]. After washing three times, the bound proteins were eluted from beads in SDS-PAGE sample buffer and resolved on SDS-PAGE followed by immunoblotting with a primary anti-myc (9E10, Santa Cruz) antibody and a secondary HRP-coupled antibody (goat anti-mouse IgG-HRP, Santa Cruz).

Assay [4] addresses T2, RUNX1-BCR protein. Briefly: ABCD (avidin, biotin, complex, DNA) assay with RUNX1-BCR protein. The note with it: for inhibition at 1000 µM: read-out: ABCD Inhibition [%] BCR. The protocol: as §1
[5] abbreviates: relative inhibition at 1 mM inhibitor concentration, RUNX1-NHR2 protein.
Where [6] appears, read: relative inhibition at 1 mM inhibitor concentration, RUNX1-BCR.
Setting [7] is: measured at 2 mM concentration, RUNX1-NHR2 protein.
Setting [8] is: measured at 2 mM concentration, RUNX1-BCR.
Where [9] appears, read: [P1]=500 μM and [PPIM]=2000 μM in ELISA.

Structures are written as SMILES. Where two headings read alike, the source gives them in different places.

T1 sequence (Q01196+Q06455 fused): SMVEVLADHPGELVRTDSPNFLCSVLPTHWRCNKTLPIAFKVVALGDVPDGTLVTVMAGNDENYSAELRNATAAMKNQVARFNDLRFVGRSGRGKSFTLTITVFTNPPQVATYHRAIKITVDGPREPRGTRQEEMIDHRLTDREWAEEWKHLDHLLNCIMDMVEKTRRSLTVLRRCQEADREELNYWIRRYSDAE
T2 sequence (Q01196+P11274 fused): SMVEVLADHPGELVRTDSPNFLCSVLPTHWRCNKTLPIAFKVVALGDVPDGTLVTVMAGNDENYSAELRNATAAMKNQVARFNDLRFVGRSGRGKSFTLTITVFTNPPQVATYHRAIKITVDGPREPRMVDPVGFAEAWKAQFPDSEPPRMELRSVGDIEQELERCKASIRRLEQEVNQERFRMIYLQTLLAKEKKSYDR

Broadly, the inhibition is the change of the read-out against control, counted positive when it falls. Regarding `O=C(CSc1nc2ccccc2[nH]1)Nc1ccc(Cl)c(C(=O)O)c1` [Compound 5.4, 5-(2-(1H-benzo[d]imidazol-2-ylthio)acetamido)-2-chlorobenzoic acid], the inhibition at 1000 µM in assay [1] (setting [5]) was 89.7%; in assay [2] (setting [6]), 35.4%; in assay [3] (setting [5]), 63.9%; in assay [4] (setting [6]) it was -3.3%.

Turning to `Cc1c(CC(=O)NCCC(=O)O)c(=O)oc2c(C)c3occ(C(C)(C)C)c3cc12` [Compound 5.17, 3-(2-(3-tert-butyl-5,9-dimethyl-7-oxo-7H-furo[3,2-g]chromen-6-yl)acetamido)propanoic acid], the inhibition at 1000 µM in assay [1] (setting [5]) amounted to 41.7%; in assay [2] (setting [6]), 15.9%; in assay [3] (setting [5]) it was 89.5%; in assay [4] (setting [6]) it was 95.3%.

Regarding `COc1ccc(OC)c2[nH]c(C(=O)NCC3(CC(=O)O)CCCCC3)cc12` [Compound 5.18, 2-(1-((4,7-dimethoxy-1H-indole-2-carboxamido)methyl)cyclohexyl)acetic acid], the inhibition at 1000 µM in assay [1] (setting [5]) worked out at 80.5%; in assay [2] (setting [6]), 3.9%; in assay [3] (setting [5]) it was 83%; in assay [4] (setting [6]) it was 52.6%.

Regarding `Cc1ccc(OCC(=O)O)c(OCC(=O)O)c1` [Compound 7.3, 2-[2-(carboxymethyloxy)-4-methyl-phenoxy]acetic acid], the inhibition at 2000 µM in assay [1] (setting [7]) was determined as 94.4%; in assay [2] (setting [8]), 31.5%. In addition, the inhibition at 1000 µM in assay [3] (setting [5]) came out at 57.7%; in assay [4] (setting [6]) it was 28.5%.

As for `Cc1oc(C(=O)O)cc1CSCc1cc(C(=O)O)oc1C` [Compound 5.9, 5,5′-dimethyl-4,4′-(sulfanediylbis(methyl))-di(furan-2-carboxylic acid)], the inhibition at 1000 µM in assay [1] (setting [5]) worked out at 51.7%; in assay [2] (setting [6]), 20.7%; in assay [3] (setting [5]), 52.5%; in assay [4] (setting [6]), 14.6%.

Consider `COc1ccc(-c2ccc(CCC(=O)O)n2CCC(=O)O)cc1` [Compound 5.8, 3,3′-(5-(4-methoxyphenyl)-1H-pyrrole-1,2-diyl)dipropanoic acid], for which the inhibition at 1000 µM in assay [1] turned out to be 70.3%; in assay [2], 12%; in assay [3], 68.2%; in assay [4] it was 56.1%.

Take `COc1cc(CC(C(=O)O)C(C)C(=O)c2ccc3c(c2)OCO3)cc(OC)c1OC` (stereo not shown) [Compound 7.18, 4-(benzo[d][1,3]dioxol-5-yl)-3-methyl-4-oxo-2-(3,4,5-trimethoxybenzyl)butanoic acid]: the “inhibition of tetramer-dependent binding of the RUNX1-NHR2 protein to immobilized RUNX3 oligonucleotide, ELISA” value in assay [1] (setting [9]) was “selectively inhibit”. The values for the inhibition at 2000 µM in assay [1] and in assay [2] were 47.7% and -6.7%, respectively. Besides, the “inhibition of binding of the RUNX1-BCR protein, ELISA” value in assay [2] (setting [9]) was “is not inhibited”. Besides, the “inhibition of tetramer-dependent binding of the RUNX1-NHR2 protein to immobilized RUNX3 oligonucleotide, ABCD” value in assay [3] (c=1100 μM in ABCD assay) was “selectively inhibit”. For the same compound, the values for the inhibition at 1000 µM in assay [3] and in assay [4] were 80.2% and -2.2%, respectively. For the same compound, the “inhibition of binding of the RUNX1-BCR protein, ABCD” value in assay [4] (c=1100 μM in ABCD assay) was “is not inhibited”.

`O=C(O)COc1cccc(OCC(=O)O)c1` [Compound 7.4, 2,2′-(1,3-phenylenebis(oxy))diacetic acid]: the values for the inhibition at 2000 µM in assay [1] (setting [7]) and in assay [2] (setting [8]) were 71.6% and 10%, respectively. For the same compound, the results for the inhibition at 1000 µM in assay [3] (setting [5]) and in assay [4] (setting [6]) were 47.4% and 6.1%, respectively.

Take `O=C(O)c1ccccc1OCc1cn2ccccc2n1` [Compound 2b, 2-(imidazo[1,2-a]pyridin-2-ylmethoxy)benzoic acid]: the inhibition at 50 µM in assay [1] (measured at 50 μM concentration, RUNX1-NHR2 protein) came out at 83.1%; in assay [2] (measured at 50 μM concentration, RUNX1-BCR), 41.5%. Further, the inhibition at 1000 µM in assay [3] (setting [5]) is 49.4%; in assay [4] (setting [6]) it was 11.8%.
